# ChEMBL document CHEMBL1140262 (J Med Chem, 2005)
# Legend:
# [1] = biological target: Neuronal acetylcholine receptor; alpha4/beta2 (Rattus norvegicus, UniProt P09483+P12390); assay: Inhibition of 3 nM [3H]NIC binding to Nicotinic acetylcholine receptor alpha4-beta2 of rat striatal membranes; type: cell membranes, Membrane
# [2] = biological target: Neuronal acetylcholine receptor subunit alpha-7 (Rattus norvegicus, UniProt Q05941); type: cell membranes, Membrane
# Description: Inhibition of 3 nM [3H]-MLA binding to Nicotinic acetylcholine receptor alpha7 of rat brain membranes
# Rattus norvegicus [3] = species: Rattus norvegicus; assay: Ratio of Ki for Nicotinic acetylcholine receptor alpha4-beta2 and Vesicular Monoamine Transporter ([…])
# Rattus norvegicus [4] = species: Rattus norvegicus; assay: Ratio of Ki for Nicotinic acetylcholine receptor alpha-7 and Vesicular monoamine transporter ([…])
# [5] = biological target: Synaptic vesicular amine transporter (Rattus norvegicus, UniProt Q01827); type: cell membranes, Membrane
# Synaptic vesicular amine transporter, sequence (Q01827 whole entry): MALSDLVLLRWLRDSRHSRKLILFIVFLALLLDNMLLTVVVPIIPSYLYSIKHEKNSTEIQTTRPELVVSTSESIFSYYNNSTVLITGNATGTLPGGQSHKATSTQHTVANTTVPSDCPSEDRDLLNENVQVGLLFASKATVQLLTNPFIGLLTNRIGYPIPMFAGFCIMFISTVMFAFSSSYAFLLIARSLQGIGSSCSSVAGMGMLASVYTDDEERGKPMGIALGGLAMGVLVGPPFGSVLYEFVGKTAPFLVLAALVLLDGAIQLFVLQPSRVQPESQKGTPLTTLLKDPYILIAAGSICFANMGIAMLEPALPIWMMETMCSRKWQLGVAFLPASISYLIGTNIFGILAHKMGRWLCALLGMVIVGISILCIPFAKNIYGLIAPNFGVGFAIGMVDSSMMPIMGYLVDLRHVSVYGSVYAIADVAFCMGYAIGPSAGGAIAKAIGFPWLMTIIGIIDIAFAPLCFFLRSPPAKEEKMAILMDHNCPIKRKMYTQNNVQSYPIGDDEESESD
# Description: Inhibition of 5 nM [3H]DTBZ binding to Vesicular Monoamine Transporter (VAMT2) of rat vesicle membranes
# Neuronal acetylcholine receptor subunit alpha-7, sequence (Q05941 whole entry): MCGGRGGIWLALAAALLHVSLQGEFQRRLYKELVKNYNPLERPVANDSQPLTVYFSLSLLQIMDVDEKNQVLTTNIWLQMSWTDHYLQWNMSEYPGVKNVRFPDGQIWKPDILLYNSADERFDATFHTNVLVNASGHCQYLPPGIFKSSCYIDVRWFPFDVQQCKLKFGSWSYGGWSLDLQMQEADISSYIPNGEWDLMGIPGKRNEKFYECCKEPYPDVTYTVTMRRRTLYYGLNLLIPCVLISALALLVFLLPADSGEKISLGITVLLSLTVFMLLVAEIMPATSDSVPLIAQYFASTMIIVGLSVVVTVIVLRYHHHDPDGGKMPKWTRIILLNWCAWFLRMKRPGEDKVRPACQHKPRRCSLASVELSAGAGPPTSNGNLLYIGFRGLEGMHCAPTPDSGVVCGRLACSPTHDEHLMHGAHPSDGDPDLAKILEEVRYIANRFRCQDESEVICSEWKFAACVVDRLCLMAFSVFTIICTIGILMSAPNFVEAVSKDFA
# Neuronal acetylcholine receptor; alpha4/beta2, sequence (P09483 whole entry): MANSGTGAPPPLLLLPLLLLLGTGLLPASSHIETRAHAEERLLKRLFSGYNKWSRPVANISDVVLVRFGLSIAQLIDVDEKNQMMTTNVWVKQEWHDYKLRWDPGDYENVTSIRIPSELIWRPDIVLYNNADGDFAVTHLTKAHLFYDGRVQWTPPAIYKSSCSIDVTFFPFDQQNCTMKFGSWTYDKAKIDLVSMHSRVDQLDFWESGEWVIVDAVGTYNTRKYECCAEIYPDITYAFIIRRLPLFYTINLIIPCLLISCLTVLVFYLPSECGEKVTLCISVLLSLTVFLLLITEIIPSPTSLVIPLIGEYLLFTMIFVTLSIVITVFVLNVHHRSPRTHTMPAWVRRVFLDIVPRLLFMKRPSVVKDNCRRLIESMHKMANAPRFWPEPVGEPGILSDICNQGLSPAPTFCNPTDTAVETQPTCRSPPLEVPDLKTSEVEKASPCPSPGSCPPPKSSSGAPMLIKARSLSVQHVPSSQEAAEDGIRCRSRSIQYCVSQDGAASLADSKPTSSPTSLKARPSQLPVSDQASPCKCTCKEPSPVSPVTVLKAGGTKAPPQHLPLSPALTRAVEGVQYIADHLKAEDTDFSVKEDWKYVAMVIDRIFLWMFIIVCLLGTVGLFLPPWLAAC
# Neuronal acetylcholine receptor; alpha4/beta2, sequence (P12390 whole entry): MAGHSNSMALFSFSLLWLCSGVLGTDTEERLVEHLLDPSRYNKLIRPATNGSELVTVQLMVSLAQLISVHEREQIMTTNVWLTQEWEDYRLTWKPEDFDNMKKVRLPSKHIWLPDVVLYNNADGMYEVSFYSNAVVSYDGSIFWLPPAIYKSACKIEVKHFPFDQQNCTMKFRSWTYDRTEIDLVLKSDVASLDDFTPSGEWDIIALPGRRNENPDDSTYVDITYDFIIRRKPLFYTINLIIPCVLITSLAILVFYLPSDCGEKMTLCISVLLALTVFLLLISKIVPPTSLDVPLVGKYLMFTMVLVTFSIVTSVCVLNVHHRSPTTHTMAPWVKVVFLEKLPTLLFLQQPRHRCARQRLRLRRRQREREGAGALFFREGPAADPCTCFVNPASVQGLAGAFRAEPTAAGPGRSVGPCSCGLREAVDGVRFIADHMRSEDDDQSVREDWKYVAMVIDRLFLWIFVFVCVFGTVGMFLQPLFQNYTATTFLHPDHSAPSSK
Compound,Ki [1],Ki [2],Ki ratio (Rattus norvegicus [3]),Ki ratio (Rattus norvegicus [4]),Ki [5]
c1ccc(CC[C@H]2CCC[C@@H](CCc3ccccc3)N2)cc1,> 100 µM,> 100 µM,> 43.3,> 43.3,2.31 µM
CN1[C@H](CCc2ccccc2)CCC[C@H]1CCc1ccccc1,,25.3 µM,,,
CN1[C@H](/C=C/c2ccccc2)CCC[C@@H]1/C=C/c1ccccc1,11.6 µM,> 100 µM,1.2,> 10.1,9.88 µM
CN[C@H](CCCCCCc1ccccc1)CCc1ccccc1,> 100 µM,> 100 µM,> 25.2,> 25.2,3.96 µM
CN(CCCc1ccccc1)CCCc1ccccc1,> 100 µM,> 100 µM,> 32.3,> 32.3,3.07 µM
CN1[C@@H](CCc2ccccc2)CCC[C@@H]1/C=C/c1ccccc1,> 100 µM,,,,
C[N+]1(C)[C@H](/C=C/c2ccccc2)CCC[C@H]1/C=C/c1ccccc1,> 100 µM,15.1 µM,> 10.8,1.6,9.24 µM
C[N+]1(C)[C@H](/C=C/c2ccccc2)CCC[C@@H]1/C=C/c1ccccc1,> 100 µM,33.8 µM,,< 0.3,> 100 µM
CN1[C@H](CCc2ccccc2)CCC[C@@H]1/C=C/c1ccccc1,> 100 µM,,,,
C[N+]1(C)[C@H](CCc2ccccc2)CCC[C@H]1CCc1ccccc1,16.2 µM,2.39 µM,0.7,0.1,24.6 µM
CN1[C@@H](CCc2ccccc2)CCC[C@H]1CCc1ccccc1 [LOBELANE],,26 µM,,,
C[N+]1(C)[C@@H](CCc2ccccc2)CCC[C@H]1CCc1ccccc1,24.3 µM,9.63 µM,1.5,0.6,16.5 µM
C(=C\[C@@H]1CCC[C@H](/C=C/c2ccccc2)N1)/c1ccccc1,> 100 µM,> 100 µM,> 48.1,> 48.1,
CN1[C@H](CCc2ccccc2)CCC[C@H]1/C=C/c1ccccc1,> 100 µM,,,,
CN1[C@@H](CCc2ccccc2)CCC[C@@H]1CCc1ccccc1,,40 µM,,,
c1ccc2c(CC[C@H]3CCC[C@@H](CCc4cccc5ccccc45)N3)cccc2c1,> 100 µM,> 100 µM,> 21.4,> 21.4,4.68 µM
C(=C\[C@@H]1CCC[C@@H](/C=C/c2ccccc2)N1)/c1ccccc1.C(=C\[C@H]1CCC[C@H](/C=C/c2ccccc2)N1)/c1ccccc1,> 100 µM,> 100 µM,> 19.3,> 19.3,5.19 µM
CN1[C@@H](CCc2ccccc2)C=CC[C@H]1/C=C/c1ccccc1,> 100 µM,> 100 µM,> 26,> 26,3.84 µM
CN1[C@H](CCc2ccccc2)CC=C[C@@H]1CCc1ccccc1,> 100 µM,,,,
CN1[C@@H](CCc2cccc3ccccc23)CCC[C@H]1CCc1cccc2ccccc12,> 100 µM,> 100 µM,> 159,> 159,0.63 µM
CN1[C@@H](CCc2ccc3ccccc3c2)CCC[C@H]1CCc1ccc2ccccc2c1,> 100 µM,> 100 µM,> 49.3,> 49.3,2.03 µM
CN(C/C=C/c1ccccc1)C/C=C/c1ccccc1,> 100 µM,> 100 µM,> 42.2,> 42.2,2.37 µM
CN1[C@H](/C=C/c2ccccc2)CCC[C@H]1/C=C/c1ccccc1,> 100 µM,> 100 µM,> 5.2,> 5.2,19.4 µM
CN1[C@@H](/C=C/c2ccccc2)CCC[C@@H]1/C=C/c1ccccc1,> 100 µM,> 100 µM,> 14.1,> 14.1,7.09 µM
CN[C@@H](CCCCCCc1ccccc1)CCc1ccccc1,> 100 µM,> 100 µM,> 19.2,> 19.2,5.21 µM
CN1[C@@H](CCc2ccccc2)CCC[C@H]1/C=C/c1ccccc1,> 100 µM,,,,
c1ccc2cc(CC[C@H]3CCC[C@@H](CCc4ccc5ccccc5c4)N3)ccc2c1,> 100 µM,> 100 µM,,,> 100 µM
